# Source: the supplement of paper PMC10307832
# Columns and labels:
# Test in all cases: relative viability (nuclei count vs DMSO), 5 days (fraction); higher = more cells survive
# [1] = test system: IA-LM
# How it was run: (§1)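 For relative viability, nuclei counts in treated wells were divided by those in vehicle wells. Lung cancer cell lines had been pin-tool dosed in 1536-well plates the day after seeding and cultured for 5 days, then fixed and stained in one step (final 0.05% Triton X-100, 1% formaldehyde, 1 ug/ml Hoechst) and imaged at 4×. Doses were one drug alone or a fixed anchor-drug dose plus five library-drug doses (not always all listed) in √10 steps, and values are duplicate-plate medians.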
# [2] = test system: Calu-6
# How it was run: as §1
# [3] = test system: NCI-H520
# How it was run: as §1
# [4] = test system: NCI-H727
# How it was run: as §1
# [5] = test system: NCI-H1623
# How it was run: as §1
# [6] = test system: NCI-H2170
# How it was run: as §1
# [7] = test system: NCI-H2023
# How it was run: as §1
# [8] = test system: A549
# How it was run: as §1
# [9] = test system: NCI-H1299
# How it was run: as §1
# [10] = test system: EBC-1
# How it was run: as §1
# [11] = test system: NCI-H1703
# How it was run: as §1
# [12] = test system: NCI-H1648
# How it was run: as §1
structure (smiles),measurement,setting,value
Cc1cn(-c2cc(NC(=O)c3ccc(C)c(Nc4nccc(-c5cccnc5)n4)c3)cc(C(F)(F)F)c2)cn1 [Nilotinib] + COc1cc2c(Oc3ccc(NC(=O)C4(C(=O)Nc5ccc(F)cc5)CC4)cc3F)ccnc2cc1OCCCN1CCOCC1 [Foretinib] (partner 0.25 µM),relative viability,[1]; first compound 0.001 µM,1.14
same,relative viability,[1]; first compound 0.003162 µM,1.23
same,relative viability,[1]; first compound 0.01 µM,1.33
same,relative viability,[1]; first compound 0.1 µM,1.17
same,relative viability,[2]; first compound 0.001 µM,0.726
same,relative viability,[2]; first compound 0.003162 µM,0.897
same,relative viability,[2]; first compound 0.01 µM,0.934
same,relative viability,[2]; first compound 0.03162 µM,0.644
same,relative viability,[2]; first compound 0.1 µM,0.801
same,relative viability,[3]; first compound 0.001 µM,0.757
same,relative viability,[3]; first compound 0.003162 µM,1.03
same,relative viability,[3]; first compound 0.01 µM,0.91
same,relative viability,[3]; first compound 0.03162 µM,0.684
same,relative viability,[3]; first compound 0.1 µM,0.688
same,relative viability,[4]; first compound 0.003162 µM,1.16
same,relative viability,[4]; first compound 0.01 µM,1
same,relative viability,[4]; first compound 0.03162 µM,0.797
same,relative viability,[4]; first compound 0.1 µM,0.79
same,relative viability,[5]; first compound 0.001 µM,0.789
same,relative viability,[5]; first compound 0.003162 µM,0.815
same,relative viability,[5]; first compound 0.01 µM,0.873
same,relative viability,[5]; first compound 0.03162 µM,0.667
same,relative viability,[5]; first compound 0.1 µM,0.791
same,relative viability,[6]; first compound 0.001 µM,1.03
same,relative viability,[6]; first compound 0.003162 µM,1.14
same,relative viability,[6]; first compound 0.01 µM,1.24
same,relative viability,[6]; first compound 0.03162 µM,0.995
same,relative viability,[6]; first compound 0.1 µM,1.01
same,relative viability,[7]; first compound 0.001 µM,0.839
same,relative viability,[7]; first compound 0.01 µM,1.01
same,relative viability,[7]; first compound 0.03162 µM,0.88
same,relative viability,[7]; first compound 0.1 µM,0.875
same,relative viability,[8]; first compound 0.001 µM,1.03
same,relative viability,[8]; first compound 0.01 µM,1.15
same,relative viability,[8]; first compound 0.1 µM,0.95
same,relative viability,[9]; first compound 0.001 µM,1.11
same,relative viability,[9]; first compound 0.01 µM,1.17
same,relative viability,[9]; first compound 0.03162 µM,1.19
same,relative viability,[9]; first compound 0.1 µM,1.07
same,relative viability,[10]; first compound 0.001 µM,0.0869
same,relative viability,[10]; first compound 0.003162 µM,0.101
same,relative viability,[10]; first compound 0.01 µM,0.105
same,relative viability,[10]; first compound 0.1 µM,0.112
same,relative viability,[11]; first compound 0.001 µM,0.337
same,relative viability,[11]; first compound 0.1 µM,0.409
Cc1cn(-c2cc(NC(=O)c3ccc(C)c(Nc4nccc(-c5cccnc5)n4)c3)cc(C(F)(F)F)c2)cn1 [Nilotinib] + COc1cccc2cc(-c3nc([C@H]4CC[C@H](C(=O)O)CC4)n4ncnc(N)c34)[nH]c12 [OSI-027] (partner 0.5 µM),relative viability,[3]; first compound 0.001 µM,0.269
same,relative viability,[3]; first compound 0.003162 µM,0.279
same,relative viability,[3]; first compound 0.01 µM,0.325
same,relative viability,[3]; first compound 0.03162 µM,0.281
same,relative viability,[3]; first compound 0.1 µM,0.276
same,relative viability,[12]; first compound 0.003162 µM,0.257
same,relative viability,[12]; first compound 0.01 µM,0.257
same,relative viability,[12]; first compound 0.03162 µM,0.256
same,relative viability,[12]; first compound 0.1 µM,0.253
same,relative viability,[4]; first compound 0.001 µM,0.57
same,relative viability,[4]; first compound 0.003162 µM,0.477
same,relative viability,[4]; first compound 0.01 µM,0.697
same,relative viability,[4]; first compound 0.03162 µM,0.44
same,relative viability,[4]; first compound 0.1 µM,0.344
same,relative viability,[5]; first compound 0.001 µM,0.395
same,relative viability,[5]; first compound 0.003162 µM,0.422
same,relative viability,[5]; first compound 0.01 µM,0.444
same,relative viability,[5]; first compound 0.03162 µM,0.432
same,relative viability,[5]; first compound 0.1 µM,0.423
same,relative viability,[6]; first compound 0.001 µM,0.662
same,relative viability,[6]; first compound 0.003162 µM,0.589
same,relative viability,[6]; first compound 0.01 µM,0.832
same,relative viability,[6]; first compound 0.03162 µM,0.828
same,relative viability,[6]; first compound 0.1 µM,0.563
same,relative viability,[7]; first compound 0.001 µM,0.303
same,relative viability,[7]; first compound 0.003162 µM,0.3
same,relative viability,[7]; first compound 0.01 µM,0.313
same,relative viability,[7]; first compound 0.03162 µM,0.277
same,relative viability,[7]; first compound 0.1 µM,0.195
CN1CCN(CCOc2cc(OC3CCOCC3)c3c(Nc4c(Cl)ccc5c4OCO5)ncnc3c2)CC1 [Saracatinib] + COc1cccc2cc(-c3nc([C@H]4CC[C@H](C(=O)O)CC4)n4ncnc(N)c34)[nH]c12 [OSI-027] (partner 0.5 µM),relative viability,[3]; first compound 0.02 µM,0.191
same,relative viability,[3]; first compound 0.6325 µM,0.262
same,relative viability,[3]; first compound 2 µM,0.176
same,relative viability,[12]; first compound 0.02 µM,0.265
same,relative viability,[12]; first compound 0.6325 µM,0.262
same,relative viability,[12]; first compound 2 µM,0.283
same,relative viability,[4]; first compound 0.02 µM,0.496
same,relative viability,[4]; first compound 0.2 µM,0.463
same,relative viability,[4]; first compound 0.6325 µM,0.529
same,relative viability,[4]; first compound 2 µM,0.485
same,relative viability,[5]; first compound 0.02 µM,0.441
same,relative viability,[5]; first compound 0.2 µM,0.388
same,relative viability,[5]; first compound 0.6325 µM,0.404
same,relative viability,[5]; first compound 2 µM,0.357
same,relative viability,[6]; first compound 0.02 µM,0.694
same,relative viability,[6]; first compound 0.2 µM,0.459
same,relative viability,[6]; first compound 0.6325 µM,0.811
same,relative viability,[6]; first compound 2 µM,0.53
same,relative viability,[7]; first compound 0.02 µM,0.473
same,relative viability,[7]; first compound 0.2 µM,0.394
same,relative viability,[7]; first compound 0.6325 µM,0.316
same,relative viability,[7]; first compound 2 µM,0.273
Cc1csc(=NC2CCCCC2)n1/N=C/c1ccc(O)c(O)c1O [MIM1] + Cc1cc(Nc2cc(N3CCN(C)CC3)nc(Sc3ccc(NC(=O)C4CC4)cc3)n2)n[nH]1 [Tozasertib] (partner 0.1 µM),relative viability,[3]; first compound 0.2 µM,0.55
same,relative viability,[3]; first compound 0.6325 µM,0.419
same,relative viability,[3]; first compound 2 µM,0.463
same,relative viability,[3]; first compound 6.325 µM,0.428
same,relative viability,[3]; first compound 20 µM,0.375
same,relative viability,[12]; first compound 0.2 µM,0.371
same,relative viability,[12]; first compound 0.6325 µM,0.369
same,relative viability,[12]; first compound 2 µM,0.374
same,relative viability,[12]; first compound 6.325 µM,0.326
same,relative viability,[12]; first compound 20 µM,0.172
same,relative viability,[4]; first compound 0.2 µM,0.513
same,relative viability,[4]; first compound 0.6325 µM,0.536
same,relative viability,[4]; first compound 2 µM,0.592
same,relative viability,[4]; first compound 6.325 µM,0.574
same,relative viability,[4]; first compound 20 µM,0.506
same,relative viability,[5]; first compound 0.2 µM,0.454
same,relative viability,[5]; first compound 0.6325 µM,0.402
same,relative viability,[5]; first compound 2 µM,0.43
same,relative viability,[5]; first compound 6.325 µM,0.339
same,relative viability,[5]; first compound 20 µM,0.352
same,relative viability,[6]; first compound 0.2 µM,0.706
same,relative viability,[6]; first compound 0.6325 µM,0.721
same,relative viability,[6]; first compound 2 µM,0.62
same,relative viability,[6]; first compound 6.325 µM,0.478
same,relative viability,[6]; first compound 20 µM,0.206
same,relative viability,[7]; first compound 0.2 µM,0.32
same,relative viability,[7]; first compound 0.6325 µM,0.345
same,relative viability,[7]; first compound 2 µM,0.3
same,relative viability,[7]; first compound 6.325 µM,0.237
same,relative viability,[7]; first compound 20 µM,0.109
